Counter-ions that a name gives are not always drawn. Like-named read-outs stand apart in the source and are kept apart here.
Key:
in vitro = details: human, Cytotoxicity IC50
[1] = system: Ebola VLP entry into HeLa cells; assay: microbe, parasite or virus in culture; format: cell-based, Ebola virus; details: for IC50 / IC90 / Emax: Zaire ebolavirus, HeLa; for IC90: read-out: Block Ebola VLP entry IC90; for Emax: read-out: Block Ebola VLP entry Max. Inh.
[2] = read-out: Block Ebola VLP entry IC50
[3] = read-out: IC50 of blocking Ebola VLP entry

| Compound | IC50 (in vitro) [µM] | Selectivity Index [1] [fold] | IC50 [1, 2] [µM] | IC90 [1] [µM] | Emax [1] [%] | IC50 [1, 3] [µM] | Activity in the Ebola VLP assay [1] |
| --- | --- | --- | --- | --- | --- | --- | --- |
| CCCSc1ccc2nc(NC(=O)OC)[nH]c2c1 [Albendazole] | > 500 | >102 | 4.9 | 20.7 | 76 | 4.8 |  |
| CCN(CCCc1ccccc1)CCCc1ccccc1 [Alverine Citrate] | > 500 | >58 | 8.63 | 21.8 | 90 |  |  |
| CCN(CC)Cc1cc(Nc2ccnc3cc(Cl)ccc23)ccc1O [Amodiaquine] | > 500 | >113 | 4.43 | 27.3 | 106 |  |  |
| CCN(CC)CCCN(c1ccccc1)C1Cc2ccccc2C1 [Aprindine] | > 500 | >65 | 7.69 | 26.6 | 93 |  |  |
| O=C(CCN1CCN2CCCC2C1)N1c2ccccc2Sc2ccc(Cl)cc21 (centres unmarked) [Azaclorzine] | > 500 | >53 | 9.43 | 37.1 | 88 |  |  |
| CC[C@H]1OC(=O)[C@H](C)[C@@H](O[C@H]2C[C@@](C)(OC)[C@@H](O)[C@H](C)O2)[C@H](C)[C@@H](O[C@@H]2O[C@H](C)C[C@H](N(C)C)[C@H]2O)[C@](C)(O)C[C@@H](C)CN(C)[C@H](C)[C@@H](O)[C@]1(C)O [Azithromycin] | > 500 | >179 | 2.79 | 15.8 | 100 |  |  |
| Cc1c(-c2ccc(O)cc2)n(Cc2ccc(OCCN3CCCCCC3)cc2)c2ccc(O)cc12 [Bazedoxifene] | 43.2 |  |  |  |  |  |  |
| CN1[C@@H]2CC[C@H]1C[C@@H](OC(c1ccccc1)c1ccccc1)C2 [Benztropine] | 250 |  |  | 8.25 | 100 |  |  |
| Cc1ccc(C(=O)Oc2ccc(C(O)CNC(C)(C)C)cc2OC(=O)c2ccc(C)cc2)cc1 (centres unmarked) [Bitolterol] | 250 | 41 | 6.11 | 22.6 | 85 |  |  |
| COc1cc(Nc2c(C#N)cnc3cc(OCCCN4CCN(C)CC4)c(OC)cc23)c(Cl)cc1Cl [Bosutinib] | 43.2 | 11 | 3.85 | 21.3 | 101 |  |  |
| CC(C)C[C@H](NC(=O)[C@H](CCc1ccccc1)NC(=O)CN1CCOCC1)C(=O)N[C@@H](Cc1ccccc1)C(=O)N[C@@H](CC(C)C)C(=O)[C@@]1(C)CO1 [Carfilzomib] | > 500 | >1156 | 0.432 | 1.88 | 57 |  |  |
| COc1ccc2cc1Oc1ccc(cc1)C[C@H]1c3c(cc4c(c3Oc3cc5c(cc3OC)CCN(C)[C@@H]5C2)OCO4)CCN1C [Cepharanthine] | 88.9 | 58 | 1.53 | 4.4 | 112 |  |  |
| CCN(CC)CCCC(C)Nc1ccnc2cc(Cl)ccc12 (centres unmarked) [Chloroquine] | > 500 | >32 | 15.3 | 133 | 98 |  |  |
| CC[C@H]1OC(=O)[C@H](C)[C@@H](O[C@H]2C[C@@](C)(OC)[C@@H](O)[C@H](C)O2)[C@H](C)[C@@H](O[C@@H]2O[C@H](C)C[C@H](N(C)C)[C@H]2O)[C@](C)(OC)C[C@@H](C)C(=O)[C@H](C)[C@@H](O)[C@]1(C)O [Clarithromycin] | > 500 | >110 | 4.53 | 15.1 | 100 |  |  |
| CN(C)CCCN1c2ccccc2CCc2ccc(Cl)cc21 [Clomipramine] | 64.1 |  |  | 11.7 | 93 |  |  |
| COc1cc2c(c(OC)c1OC)-c1ccc(OC)c(=O)cc1[C@@H](NC(C)=O)CC2 [Colchicine] | > 500 |  |  | 0.354 | 73 |  |  |
| CC1CCCCN1CCCOC(=O)c1ccc(OC2CCCCC2)cc1 (centres unmarked) [Cyclomethycaine] | > 500 | >65 | 7.69 | 19.6 | 86 |  |  |
| COc1cccc2c1C(=O)c1c(O)c3c(c(O)c1C2=O)C[C@@](O)(C(C)=O)C[C@@H]3O[C@H]1C[C@H](N)[C@H](O)[C@H](C)O1 [Daunomycin] | > 500 | >190 | 2.63 | 5.4 | 98 |  |  |
| C[C@H]1O[C@@H](O[C@H]2CC[C@@]3(C)[C@H](CC[C@@H]4[C@@H]3C[C@@H](O)[C@]3(C)[C@@H](C5=CC(=O)OC5)CC[C@]43O)C2)C[C@H](O)[C@@H]1O[C@H]1C[C@H](O)[C@H](O[C@H]2C[C@H](O)[C@H](O[C@@H]3O[C@H](CO)[C@@H](O)[C@H](O)[C@H]3O)[C@@H](C)O2)[C@@H](C)O1 [Deslanoside] | 250 | 515 | 0.485 | 11.7 | 66 |  |  |
| CCCCc1oc2ccc(NS(C)(=O)=O)cc2c1C(=O)c1ccc(OCCCN(CCCC)CCCC)cc1 [Dronedarone] | 48 | 21 | 2.2 | 3.51 | 81 |  |  |
| COc1cc2ncnc(Nc3ccc(F)c(Cl)c3)c2cc1OCCCN1CCOCC1 [Gefitinib] |  |  |  | 17.9 |  |  |  |

| Compound | IC50 (in vitro) [µM] | Selectivity Index [1] [fold] | IC50 [1, 2] [µM] | IC90 [1] [µM] | Emax [1] [%] | IC50 [1, 3] [µM] | Activity in the Ebola VLP assay [1] |
| --- | --- | --- | --- | --- | --- | --- | --- |
| CN(C)CCCN1c2ccccc2CCc2ccccc21 [Imipramine] | > 500 |  |  |  |  |  |  |
| CO[C@@H]1[C@@H](OC)[C@H](C)[C@@](O)(CC(=O)O)O[C@H]1[C@H](C)[C@H]1O[C@@]2(CC[C@@](C)([C@H]3CC[C@@](C)([C@@H]4O[C@@H]([C@H]5O[C@](C)(O)[C@H](C)C[C@@H]5C)C[C@@H]4O[C@@H]4C[C@H](OC)[C@@H](OC)[C@H](C)O4)O3)O2)C[C@H](O)[C@H]1C [Maduramicin] | 24.3 | 40 | 0.611 | 3.94 | 104 |  |  |
| CNCCCC12CCC(c3ccccc31)c1ccccc12 [Maprotiline] | 146 |  |  | 12.1 | 100 |  |  |
| COC(=O)Nc1nc2ccc(C(=O)c3ccccc3)cc2[nH]1 [Mebendazole] | > 500 | >145 | 3.44 | 14 | 88 | 3.4 |  |
| OC(c1cc(C(F)(F)F)nc2c(C(F)(F)F)cccc12)C1CCCCN1 (centres unmarked) [Mefloquine] | 43.2 | 16 | 2.73 | 13 | 94 |  |  |
| COCC(=O)O[C@]1(CCN(C)CCCc2nc3ccccc3[nH]2)CCc2cc(F)ccc2[C@@H]1C(C)C [Mibefradil] | 43.2 | 10 | 4.32 | 7.34 | 96 |  |  |
| O=C(Nc1ccc([N+](=O)[O-])cc1Cl)c1cc(Cl)ccc1O [Niclosamide] | > 500 | >188 | 2.66 | 6.6 | 81 |  |  |
| Cc1cn(-c2cc(NC(=O)c3ccc(C)c(Nc4nccc(-c5cccnc5)n4)c3)cc(C(F)(F)F)c2)cn1 [Nilotinib] | 50.1 | 2 | 24.3 | 104 | 100 | 15.3 |  |
| COC(=O)Nc1nc2ccc(C(=O)c3cccs3)cc2[nH]1 [Nocodazole] | > 500 | >1242 | 0.402 | 1.04 | 87 | 0.4 |  |
| CCCOc1ccc2nc(NC(=O)OC)[nH]c2c1 [Oxibendazole] | > 500 | >291 | 1.72 | 3.75 | 57 |  |  |
| CC(=O)c1ccc2c(c1)N(CCCN1CCC(CCO)CC1)c1ccccc1S2 [Piperacetazine] | > 500 | >52 | 9.68 | 18.1 | 90 |  |  |
| CC[C@@H]([C@H](C)O)n1ncn(-c2ccc(N3CCN(c4ccc(OC[C@@H]5CO[C@@](Cn6cncn6)(c6ccc(F)cc6F)C5)cc4)CC3)cc2)c1=O [Posaconazole] | > 500 | >65 | 7.69 | 8.33 | 77 |  |  |
| CCCN(CCC)C(=O)C(CCC(=O)OCCCN1CCN(CCOC(=O)Cc2c(C)n(C(=O)c3ccc(Cl)cc3)c3ccc(OC)cc23)CC1)NC(=O)c1ccccc1 (centres unmarked) [Proglumetacin] | > 500 | >73 | 6.85 | 17.3 | 93 |  |  |
| CCCNCC(O)COc1ccccc1C(=O)CCc1ccccc1 (centres unmarked) [Propafenone] | > 500 | >80 | 6.25 | 23.8 | 100 | 6.2 |  |
| O=C(c1ccc(OCCN2CCCCC2)cc1)c1c(-c2ccc(O)cc2)sc2cc(O)ccc12 [Raloxifene/Evista, Raloxifene] | > 500 | >271 | 1.84 | 9.01 | 100 | 1.8 |  |
| OCc1cc(C(O)CNCCCCCCOCCCCc2ccccc2)ccc1O (centres unmarked) [Salmeterol] | > 500 | >52 | 9.68 | 13 | 90 |  |  |
| CCN(CC)CCNC(=O)c1c(C)[nH]c(/C=C2\C(=O)Nc3ccc(F)cc32)c1C [Sunitinib] | 148 | 77 | 1.91 | 3.82 | 90 |  |  |
| CC/C(=C(\c1ccccc1)c1ccc(OCCN(C)C)cc1)c1ccccc1 [Tamoxifen] | 99.8 |  |  | 3.15 | 97 |  |  |
| CN1CCN(CCCN2c3ccccc3Sc3ccc(S(=O)(=O)N(C)C)cc32)CC1 [Thioproperazine] | > 500 |  | 4.32 | 12.5 | 103 |  |  |
| CN[C@H]1CC[C@@H](c2ccc(Cl)c(Cl)c2)c2ccccc21 [Zoloft, sertraline] |  |  |  | 9.08 |  |  |  |
| Maraviroc |  |  |  |  |  |  | not active |
